Measurements as given in patent publication US20080132536A1, “PYRAZOLO [3,4-B] PYRIDINE COMPOUNDS, AND THEIR USE AS PDE4 INHIBITORS” (Glaxo Group Limited, priority 2003, published 2008).

Tested on: conscious ferret
Experiment: In Vivo Assay 4: therapeutic index of orally-administered PDE4 inhibitors in the conscious ferret (LPS-induced pulmonary neutrophilia and emesis)
Design: species or system ferret (Mustela Pulorius Furo)
Conditions: p.o.
Description: PDE4 inhibitors are prepared for oral (p.o.) administration by dissolving in a fixed volume (ca. 1 ml) of acetone and then adding cremophor to ca. 20% of the final volume. Acetone is evaporated by directing a flow of nitrogen gas onto the solution. Once the acetone is removed, the solution is made up to final volume with distilled water. LPS is dissolved in phosphate buffered saline.
Male ferrets (Mustela Pulorius Furo, weighing 1-2 kg) are transported and allowed to acclimatise for not less than 7 days. The diet comprises SDS diet C pelleted food given ad lib with Whiskers™ cat food given 3 times per week. The animals are supplied with pasteurised animal grade drinking water changed daily.
PDE4 inhibitors are administered orally (p.o.), using a dose volume of ca. 1 ml/kg. […] The animals are constantly observed and any emetic episodes (retching and vomiting) or behavioural changes are recorded. […]
About thirty minutes after oral dosing with compound or vehicle control, the ferrets are placed into sealed perspex containers and exposed to an aerosol of LPS (ca. 30 μg/ml=ca. 30 ug/ml) for ca. 10 minutes. […] All emetic episodes and behavioural changes are recorded.
About six hours after LPS exposure the animals are killed by overdose of sodium pentobarbitone administered intraperitoneally. […] From this, the total number of neutrophils in the BAL sample is determined. […]

SMILES: O=C(Nc1c(Cl)cncc1Cl)c1ccc(OC(F)F)c(OCC2CC2)c1 [roflumilast]
- D20 for emesis (dose giving 20% incidence of emesis): about 0.46 mg/kg
- D50 for ferret neutrophilia (dose giving 50% inhibition of LPS-induced pulmonary neutrophilia): about 0.42 mg/kg
